In patent US20250296971A1, “GASTRIC INHIBITORY PEPTIDE RECEPTOR LIGANDS” (priority 2021, published 2025):
*1 amine or outer side, *2 acyl side, *3 side chain or, on linkers, in order; H or OH if unused. Where a SMILES comes first, the peptide text is derived from it. Bridges are numbered along the chain shown (N, C = ends). Side-chain parts run from the residue outwards. [ ]: non-standard residue; d: D form. The star is where a group is joined. X16 = NC(=O)[C@H](CCCCNC(=O)CN1CCN2CCN3CCN(CC1)CC(=O)[O][Lu]([O]C(=O)C2)[O]C(=O)C3)NC(=O)CCC(=O)NCCCOCCOCCOCCCN*; X18 = O=C(CCN(CC(=O)[*:2])[*:1])NC[C@H](O)[C@@H](O)[C@H](O)[C@H](O)CO; NH(1-deoxy-D-glucityl) = OC[C@@H](O)[C@@H](O)[C@H](O)[C@@H](O)CN*; Pro(trans-4-NH2) = O=C([C@@H]1C[C@@H](N[*:3])CN1[*:1])[*:2]; Trp(5-Cl) = N[C@@H](Cc1c[nH]c2ccc(Cl)cc12)C(=O)O; Pyridine(2,6-diCH2) = c1cc(C[*:1])nc(C[*:2])c1; Pro(trans-4-F) = O=C(O)[C@@H]1C[C@@H](F)CN1; X24 = OC[C@H](CSCc1cccc(C[*:1])n1)N[*:2]; 1Nal = N[C@@H](Cc1cccc2ccccc12)C(=O)O; mXylylene = c1cc(C[*:1])cc(C[*:2])c1; Glutaryl = O=C(CCCC(=O)[*:2])[*:1]; Hyp = O=C(O)[C@@H]1C[C@@H](O)CN1; X1 = O=C(CN1CCC(N[*:1])CC1)[*:2]; Ac6c = NC1(C(=O)O)CCCCC1; Nphe = O=C(O)CNCc1ccccc1; Thp = NC1(C(=O)O)CCOCC1; Nleu = CC(C)CNCC(=O)O; Nlys = NCCCCNCC(=O)O; Sar = CNCC(=O)O

molecular target: T1, GIPR (CHO-K1-hGIPR cells) (Homo sapiens, UniProt P48546); experiment: FACS binding assay; conditions: competition with 20 nM GIP-057, 4° C., 1 hour, read-out: pIC50 Category (converted)
T1 construct: host or cells: CHO-K1
T1 sequence (P48546 22-466): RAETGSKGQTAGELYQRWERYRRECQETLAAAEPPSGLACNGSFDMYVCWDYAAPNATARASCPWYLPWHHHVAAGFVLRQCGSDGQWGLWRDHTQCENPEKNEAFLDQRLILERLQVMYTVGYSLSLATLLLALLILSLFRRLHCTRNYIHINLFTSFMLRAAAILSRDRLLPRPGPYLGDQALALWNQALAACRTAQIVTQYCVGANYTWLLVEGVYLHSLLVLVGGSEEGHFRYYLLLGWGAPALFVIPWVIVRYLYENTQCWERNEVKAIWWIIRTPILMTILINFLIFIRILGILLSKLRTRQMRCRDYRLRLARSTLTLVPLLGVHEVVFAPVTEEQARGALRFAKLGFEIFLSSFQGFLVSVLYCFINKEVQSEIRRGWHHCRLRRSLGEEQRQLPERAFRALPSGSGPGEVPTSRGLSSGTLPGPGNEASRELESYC
In short: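 CHO-K1 cells expressing human GIPR, washed in PBS/1% FCS, then stained with 1 μg/mL APC-streptavidin for 30 min on ice.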

Row | IC50 [nM] | SMILES
1 | < 10 | CC[C@H](C)[C@@H]1NC(=O)[C@H](CC(C)C)NC(=O)C2(CCOCC2)NC(=O)[C@@H](NC(=O)[C@@H](CC(C)C)NC(=O)[C@H](CCC(=O)O)NC(=O)[C@@H]2C[C@@H](O)CN2C(=O)[C@H](Cc2c[nH]c3ccc(Cl)cc23)NC(=O)[C@H](Cc2c[nH]c3ccccc23)NC(=O)[C@H](CC(=O)O)NC(=O)CCCC(=O)NC[C@H](O)[C@@H](O)[C@H](O)[C@H](O)CO)CSCc2cccc(n2)CSC[C@@H](C(=O)NC2CCN(CC(=O)N[C@H](CCC(=O)NC[C@H](O)[C@@H](O)[C@H](O)[C@H](O)CO)C(N)=O)CC2)NC1=O [GIP-174, AGLU-Glutar-Asp-Trp-5Clw-Hyp-Glu-leu-[Cys(2Lut)-Thp-Leu-Ile-Cys]-APAc-glu(AGLU)-NH2] ({NH(1-deoxy-D-glucityl)-Glutaryl}-DW[Trp(5-Cl)][Hyp]E[dL]C[Thp]LIC[X1][dE](NH(1-deoxy-D-glucityl))-NH2; linker 7-11 via Pyridine(2,6-diCH2))
2 | < 10 | CC[C@H](C)[C@@H]1NC(=O)[C@H](CC(C)C)NC(=O)C2(CCOCC2)NC(=O)[C@@H](NC(=O)[C@@H](CC(C)C)NC(=O)[C@H](CCC(=O)O)NC(=O)[C@@H]2C[C@@H](NC(=O)CCCC(=O)NC[C@H](O)[C@@H](O)[C@H](O)[C@H](O)CO)CN2C(=O)[C@H](Cc2c[nH]c3ccc(Cl)cc23)NC(=O)[C@H](Cc2c[nH]c3ccccc23)NC(=O)[C@H](CC(=O)O)NC(C)=O)CSCc2cccc(n2)CSC[C@@H](C(N)=O)NC1=O [GIP-175, Ac-Asp-Trp-5Clw-Tap (AGLU-Glutar)-Glu-leu-[Cys(2Lut)-Thp-Leu-Ile-Cys]-NH2] (Ac-DW[Trp(5-Cl)][Pro(trans-4-NH2)]([Glutaryl-NH(1-deoxy-D-glucityl)])E[dL]C[Thp]LIC-NH2; linker 7-11 via Pyridine(2,6-diCH2))
3 | < 10 | CC[C@H](C)[C@@H]1NC(=O)[C@H](CC(C)C)NC(=O)C2(CCOCC2)NC(=O)[C@@H](NC(=O)[C@@H](CC(C)C)NC(=O)[C@H](CCC(=O)O)NC(=O)CN(CCC(=O)NC[C@H](O)[C@@H](O)[C@H](O)[C@H](O)CO)C(=O)[C@H](Cc2c[nH]c3ccc(Cl)cc23)NC(=O)[C@H](Cc2c[nH]c3ccccc23)NC(=O)[C@H](CC(=O)O)NC(C)=O)CSCc2cccc(n2)CSC[C@@H](C(N)=O)NC1=O [GIP-176, Ac-Asp-Trp-5Clw-Nglu(AGLU)-Glu-leu-[Cys(2Lut)-Thp-Leu-Ile-Cys]-NH2] (Ac-DW[Trp(5-Cl)][X18]E[dL]C[Thp]LIC-NH2; linker 7-11 via Pyridine(2,6-diCH2))
4 | < 10 | CC[C@H](C)[C@@H]1NC(=O)[C@H](CC(C)C)NC(=O)C2(CCOCC2)NC(=O)[C@@H](NC(=O)[C@@H](CC(C)C)NC(=O)[C@H](CCC(=O)O)NC(=O)[C@@H]2C[C@@H](O)CN2C(=O)[C@H](Cc2c[nH]c3ccc(Cl)cc23)NC(=O)[C@H](Cc2c[nH]c3ccccc23)NC(=O)[C@H](CC(=O)O)NC(C)=O)CSCc2cccc(n2)CSC[C@@H](C(=O)NC2CCN(CC(=O)N[C@H](CCC(=O)NC[C@H](O)[C@@H](O)[C@H](O)[C@H](O)CO)C(N)=O)CC2)NC1=O [GIP-177, Ac-Asp-Trp-5Clw-Hyp-Glu-leu-[Cys(2Lut)-Thp-Leu-Ile-Cys]-APAc-glu(AGLU)-NH2] (Ac-DW[Trp(5-Cl)][Hyp]E[dL]C[Thp]LIC[X1][dE](NH(1-deoxy-D-glucityl))-NH2; linker 7-11 via Pyridine(2,6-diCH2))
5 | < 10 | CC[C@H](C)[C@@H]1NC(=O)[C@H](CC(C)C)NC(=O)C2(CCOCC2)NC(=O)[C@@H](NC(=O)[C@@H](CC(C)C)NC(=O)[C@H](CCC(=O)O)NC(=O)[C@@H]2C[C@@H](O)CN2C(=O)[C@H](Cc2c[nH]c3ccc(Cl)cc23)NC(=O)[C@H](Cc2c[nH]c3ccccc23)NC(=O)[C@H](CC(=O)O)NC(=O)CCCC(=O)NC[C@H](O)[C@@H](O)[C@H](O)[C@H](O)CO)CSCc2cccc(n2)CSC[C@@H](C(N)=O)NC1=O [GIP-178, AGLU-Glutar-Asp-Trp-5Clw-Hyp-Glu-leu-[Cys(2Lut)-Thp-Leu-Ile-Cys]-NH2] ({NH(1-deoxy-D-glucityl)-Glutaryl}-DW[Trp(5-Cl)][Hyp]E[dL]C[Thp]LIC-NH2; linker 7-11 via Pyridine(2,6-diCH2))
6 | < 10 | CC[C@H](C)[C@@H]1NC(=O)[C@H](CC(C)C)NC(=O)C2(CCOCC2)NC(=O)[C@@H](NC(=O)[C@@H](CC(C)C)NC(=O)[C@H](CCC(=O)O)NC(=O)[C@@H]2C[C@@H](O)CN2C(=O)[C@H](Cc2c[nH]c3ccc(Cl)cc23)NC(=O)[C@H](Cc2c[nH]c3ccccc23)NC(=O)[C@H](CC(=O)O)NC(C)=O)CSCc2cccc(n2)CSC[C@@H](C(N)=O)NC1=O [GIP-180, Ac-Asp-Trp-5Clw-Hyp-Glu-leu-[Cys(2Lut)-Thp-Leu-Ile-Cys]-NH2] (Ac-DW[Trp(5-Cl)][Hyp]E[dL]C[Thp]LIC-NH2; linker 7-11 via Pyridine(2,6-diCH2))
7 | < 10 | CC[C@H](C)[C@@H]1NC(=O)[C@H](CC(C)C)NC(=O)C2(CCOCC2)NC(=O)[C@@H](NC(=O)[C@@H](CC(C)C)NC(=O)[C@H](CCC(=O)O)NC(=O)[C@@H]2C[C@@H](O)CN2C(=O)[C@H](Cc2c[nH]c3ccc(Cl)cc23)NC(=O)[C@H](Cc2c[nH]c3ccccc23)NC(=O)[C@H](CC(=O)O)NC(C)=O)CSCc2cccc(n2)CSC[C@@H](CO)NC1=O [GIP-182, Ac-Asp-Trp-5Clw-Hyp-Glu-leu-[Cys(2Lut)-Thp-Leu-Ile-Cysol]-OH] (Ac-DW[Trp(5-Cl)][Hyp]E[dL]C[Thp]LI; linker 7-C via X24)
8 | < 10 | CC[C@H](C)[C@@H]1NC(=O)[C@H](CC(C)C)NC(=O)C2(CCOCC2)NC(=O)[C@@H](NC(=O)[C@@H](CC(C)C)NC(=O)[C@H](CCC(=O)O)NC(=O)CN(C)C(=O)[C@H](Cc2c[nH]c3ccc(Cl)cc23)NC(=O)[C@H](Cc2c[nH]c3ccccc23)NC(=O)[C@H](CC(=O)O)NC(C)=O)CSCc2cccc(n2)CSC[C@@H](C(N)=O)NC1=O [GIP-183, Ac-Asp-Trp-5Clw-Nmg-Glu-leu-[Cys(2Lut)-Thp-Leu-Ile-Cys]-NH2] (Ac-DW[Trp(5-Cl)][Sar]E[dL]C[Thp]LIC-NH2; linker 7-11 via Pyridine(2,6-diCH2))
9 | < 10 | CC[C@H](C)[C@@H]1NC(=O)[C@H](CC(C)C)NC(=O)C2(CCOCC2)NC(=O)[C@@H](NC(=O)[C@@H](CC(C)C)NC(=O)[C@H](CCC(=O)O)NC(=O)CN(CC(C)C)C(=O)[C@H](Cc2c[nH]c3ccc(Cl)cc23)NC(=O)[C@H](Cc2c[nH]c3ccccc23)NC(=O)[C@H](CC(=O)O)NC(C)=O)CSCc2cccc(n2)CSC[C@@H](C(N)=O)NC1=O [GIP-184, Ac-Asp-Trp-5Clw-Nleu-Glu-leu-[Cys(2Lut)-Thp-Leu-Ile-Cys]-NH2] (Ac-DW[Trp(5-Cl)][Nleu]E[dL]C[Thp]LIC-NH2; linker 7-11 via Pyridine(2,6-diCH2))
10 | < 10 | CC[C@H](C)[C@@H]1NC(=O)[C@H](CC(C)C)NC(=O)C2(CCOCC2)NC(=O)[C@@H](NC(=O)[C@@H](CC(C)C)NC(=O)[C@H](CCC(=O)O)NC(=O)CN(Cc2ccccc2)C(=O)[C@H](Cc2c[nH]c3ccc(Cl)cc23)NC(=O)[C@H](Cc2c[nH]c3ccccc23)NC(=O)[C@H](CC(=O)O)NC(C)=O)CSCc2cccc(n2)CSC[C@@H](C(N)=O)NC1=O [GIP-185, Ac-Asp-Trp-5Clw-Nphe-Glu-leu-[Cys(2Lut)-Thp-Leu-Ile-Cys]-NH2] (Ac-DW[Trp(5-Cl)][Nphe]E[dL]C[Thp]LIC-NH2; linker 7-11 via Pyridine(2,6-diCH2))
11 | < 10 | CC[C@H](C)[C@@H]1NC(=O)[C@H](CC(C)C)NC(=O)C2(CCOCC2)NC(=O)[C@@H](NC(=O)[C@@H](CC(C)C)NC(=O)[C@H](CCC(=O)O)NC(=O)CN(CCCCN)C(=O)[C@H](Cc2c[nH]c3ccc(Cl)cc23)NC(=O)[C@H](Cc2c[nH]c3ccccc23)NC(=O)[C@H](CC(=O)O)NC(C)=O)CSCc2cccc(n2)CSC[C@@H](C(N)=O)NC1=O [GIP-186, Ac-Asp-Trp-5Clw-Nlys-Glu-leu-[Cys(2Lut)-Thp-Leu-Ile-Cys]-NH2] (Ac-DW[Trp(5-Cl)][Nlys]E[dL]C[Thp]LIC-NH2; linker 7-11 via Pyridine(2,6-diCH2))
12 | < 10 | CC[C@H](C)[C@@H]1NC(=O)[C@H](CC(C)C)NC(=O)C2(CCOCC2)NC(=O)[C@@H](NC(=O)[C@@H](CC(C)C)NC(=O)[C@H](CCC(=O)O)NC(=O)[C@@H]2C[C@@H](F)CN2C(=O)[C@H](Cc2c[nH]c3ccc(Cl)cc23)NC(=O)[C@H](Cc2c[nH]c3ccccc23)NC(=O)[C@H](CC(=O)O)NC(C)=O)CSCc2cccc(n2)CSC[C@@H](C(N)=O)NC1=O [GIP-187, Ac-Asp-Trp-5Clw-4Tfp-Glu-leu-[Cys(2Lut)-Thp-Leu-Ile-Cys]-NH2] (Ac-DW[Trp(5-Cl)][Pro(trans-4-F)]E[dL]C[Thp]LIC-NH2; linker 7-11 via Pyridine(2,6-diCH2))

same assay, conditions: pIC50 Category, competition with 20 nM GIP-057, 4° C., 1 hour

Row | SMILES | IC50 [nM]
13 | CC[C@H](C)[C@@H]1NC(=O)[C@H](CC(C)C)NC(=O)C2(CCCCC2)NC(=O)[C@@H](NC(=O)[C@@H](CC(C)C)NC(=O)[C@H](CCC(=O)O)NC(=O)[C@@H]2CCCN2C(=O)[C@H](Cc2cccc3ccccc23)NC(=O)[C@H](Cc2c[nH]c3ccccc23)NC(=O)[C@H](CC(=O)O)NC(C)=O)CSCc2cccc(c2)CSC[C@@H](C(=O)NCCCOCCOCCOCCCNC(=O)CCC(=O)N[C@@H](CCCCNC(=O)CN2CCN3CCN4CCN(CC2)CC(=O)[O][Lu]([O]C(=O)C3)[O]C(=O)C4)C(N)=O)NC1=O [GIP-173, Ac-Asp-Trp-1Ni-Pro-Glu-leu-[Cys(3MeBn)-Egz-Leu-Ile-Cys]-Ttds-Lys(LuDOTA)-NH2] (Ac-DW[1Nal]PE[dL]C[Ac6c]LIC-X16; linker 7-11 via mXylylene) | 10 to 79.4
